Active and inactive are the calls of the source.
Assays:
[1] = target: T1, Mannose-6-phosphate isomerase (Homo sapiens, UniProt P34949); test: human PMI inhibitors, high substrate, primary screen, biochemical, fluorescence intensity, high mannose 6-phosphate (AID 1220)
T1 sequence (P34949 whole entry): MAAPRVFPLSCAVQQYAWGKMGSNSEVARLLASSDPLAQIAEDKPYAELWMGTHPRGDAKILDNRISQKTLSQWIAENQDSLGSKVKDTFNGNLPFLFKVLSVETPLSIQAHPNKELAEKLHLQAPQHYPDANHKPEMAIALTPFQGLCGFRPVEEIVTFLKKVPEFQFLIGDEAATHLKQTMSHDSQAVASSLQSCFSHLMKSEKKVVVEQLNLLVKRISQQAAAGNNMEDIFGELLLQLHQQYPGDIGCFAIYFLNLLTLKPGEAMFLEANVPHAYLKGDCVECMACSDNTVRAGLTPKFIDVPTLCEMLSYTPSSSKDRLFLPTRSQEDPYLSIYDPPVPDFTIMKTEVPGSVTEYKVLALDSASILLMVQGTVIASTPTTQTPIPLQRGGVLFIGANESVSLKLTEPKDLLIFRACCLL

[2] = growth suppression of PTEN-null colon cells, dose response, cell-based, HCT116 PTEN knockout (AID 1047); format: functional;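 also: HCT116 colon tumor cells with PTEN knocked out; cells exposed to compound for 60 hours before readout; potency for loss of cell viability measured by luminescence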
cells [3] = format: functional, cell-based
cells [4] = format: functional, cell-based; remark: listed apart in the source
[5] = target: T2, Calpain-2 catalytic subunit (Sus scrofa, UniProt P43367); test: pig calpain II inhibitor potency, dose response, biochemical, fluorogenic peptide substrate (AID 1420); format: functional
T2 sequence (P43367 whole entry): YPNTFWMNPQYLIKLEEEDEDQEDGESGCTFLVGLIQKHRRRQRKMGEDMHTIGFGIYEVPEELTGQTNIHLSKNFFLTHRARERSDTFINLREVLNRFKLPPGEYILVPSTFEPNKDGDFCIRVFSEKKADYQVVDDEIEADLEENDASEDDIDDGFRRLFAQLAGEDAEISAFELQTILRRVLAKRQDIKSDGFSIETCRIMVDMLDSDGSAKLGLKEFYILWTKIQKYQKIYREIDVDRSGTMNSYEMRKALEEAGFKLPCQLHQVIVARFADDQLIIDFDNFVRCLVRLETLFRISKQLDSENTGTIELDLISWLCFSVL

[6] = target: Glyceraldehyde-3-phosphate dehydrogenase (Homo sapiens, UniProt P04406)
[7] = target: T3, Replicative DNA helicase DnaB (Mycobacterium tuberculosis, UniProt P9WMR3); test: DnaB intein splicing inhibitors, dose response, biochemical, cell-free fluorescence (AID 449749); format: functional
T3 sequence (P9WMR3 whole entry): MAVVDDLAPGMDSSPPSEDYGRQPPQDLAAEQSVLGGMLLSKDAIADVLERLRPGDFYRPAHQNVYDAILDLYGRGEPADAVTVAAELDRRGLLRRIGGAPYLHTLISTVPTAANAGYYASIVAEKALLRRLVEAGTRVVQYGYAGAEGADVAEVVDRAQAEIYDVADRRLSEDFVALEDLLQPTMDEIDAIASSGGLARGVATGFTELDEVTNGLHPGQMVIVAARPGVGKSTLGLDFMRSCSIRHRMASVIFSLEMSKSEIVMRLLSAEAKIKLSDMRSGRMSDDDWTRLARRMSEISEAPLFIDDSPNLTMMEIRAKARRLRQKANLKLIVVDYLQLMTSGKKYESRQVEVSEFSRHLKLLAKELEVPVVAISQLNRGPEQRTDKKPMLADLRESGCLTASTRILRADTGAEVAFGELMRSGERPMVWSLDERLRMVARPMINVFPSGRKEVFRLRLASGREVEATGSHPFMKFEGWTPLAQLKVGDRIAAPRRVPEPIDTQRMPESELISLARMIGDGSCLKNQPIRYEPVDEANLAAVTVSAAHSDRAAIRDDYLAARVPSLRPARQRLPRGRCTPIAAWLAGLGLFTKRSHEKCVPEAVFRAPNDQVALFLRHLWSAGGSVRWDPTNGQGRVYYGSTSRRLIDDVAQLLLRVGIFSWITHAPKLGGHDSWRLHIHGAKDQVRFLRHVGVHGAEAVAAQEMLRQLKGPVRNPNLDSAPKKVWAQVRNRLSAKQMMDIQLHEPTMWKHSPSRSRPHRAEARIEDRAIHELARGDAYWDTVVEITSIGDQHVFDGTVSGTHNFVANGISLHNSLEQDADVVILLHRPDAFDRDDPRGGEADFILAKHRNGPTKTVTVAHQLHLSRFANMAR

Protein RecA = target: T4, Protein RecA (Mycobacterium tuberculosis, UniProt P9WHJ3); test: Fluorescence Cell-Free Homogeneous Dose Retest to Identify Inhibitors of RecA-Intein Splicing Activity. [Related pubchem assays (depositor defined):AID2097, AID2223, AID489010, AID492950]; format: functional
T4 sequence (P9WHJ3 whole entry): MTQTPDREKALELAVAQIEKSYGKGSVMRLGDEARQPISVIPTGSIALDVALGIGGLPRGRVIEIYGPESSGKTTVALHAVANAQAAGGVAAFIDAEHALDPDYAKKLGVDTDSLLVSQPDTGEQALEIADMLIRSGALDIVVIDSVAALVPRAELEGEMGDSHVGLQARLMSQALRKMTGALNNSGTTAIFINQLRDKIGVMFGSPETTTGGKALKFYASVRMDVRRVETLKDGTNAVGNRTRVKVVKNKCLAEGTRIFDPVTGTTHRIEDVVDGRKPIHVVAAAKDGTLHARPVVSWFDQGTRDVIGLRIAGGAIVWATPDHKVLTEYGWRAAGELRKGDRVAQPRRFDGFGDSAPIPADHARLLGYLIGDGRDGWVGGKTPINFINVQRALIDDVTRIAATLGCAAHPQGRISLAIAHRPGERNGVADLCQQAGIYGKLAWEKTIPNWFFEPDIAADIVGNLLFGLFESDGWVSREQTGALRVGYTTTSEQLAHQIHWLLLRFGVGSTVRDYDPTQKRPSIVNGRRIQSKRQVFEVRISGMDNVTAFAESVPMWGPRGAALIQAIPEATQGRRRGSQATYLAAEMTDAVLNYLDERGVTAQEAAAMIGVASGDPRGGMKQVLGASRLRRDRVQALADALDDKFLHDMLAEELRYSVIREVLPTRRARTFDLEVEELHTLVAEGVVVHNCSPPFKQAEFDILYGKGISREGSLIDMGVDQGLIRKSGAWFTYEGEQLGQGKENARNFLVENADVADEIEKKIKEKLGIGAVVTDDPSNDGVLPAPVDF

[8] = target: T5, DNA repair and recombination protein RAD54-like (Homo sapiens, UniProt Q92698); test: inhibitors of human RAD54 branch migration, confirmation, biochemical, fluorescence, cherry-picked samples, dose series (AID 651657); format: functional
T5 sequence (Q92698 whole entry): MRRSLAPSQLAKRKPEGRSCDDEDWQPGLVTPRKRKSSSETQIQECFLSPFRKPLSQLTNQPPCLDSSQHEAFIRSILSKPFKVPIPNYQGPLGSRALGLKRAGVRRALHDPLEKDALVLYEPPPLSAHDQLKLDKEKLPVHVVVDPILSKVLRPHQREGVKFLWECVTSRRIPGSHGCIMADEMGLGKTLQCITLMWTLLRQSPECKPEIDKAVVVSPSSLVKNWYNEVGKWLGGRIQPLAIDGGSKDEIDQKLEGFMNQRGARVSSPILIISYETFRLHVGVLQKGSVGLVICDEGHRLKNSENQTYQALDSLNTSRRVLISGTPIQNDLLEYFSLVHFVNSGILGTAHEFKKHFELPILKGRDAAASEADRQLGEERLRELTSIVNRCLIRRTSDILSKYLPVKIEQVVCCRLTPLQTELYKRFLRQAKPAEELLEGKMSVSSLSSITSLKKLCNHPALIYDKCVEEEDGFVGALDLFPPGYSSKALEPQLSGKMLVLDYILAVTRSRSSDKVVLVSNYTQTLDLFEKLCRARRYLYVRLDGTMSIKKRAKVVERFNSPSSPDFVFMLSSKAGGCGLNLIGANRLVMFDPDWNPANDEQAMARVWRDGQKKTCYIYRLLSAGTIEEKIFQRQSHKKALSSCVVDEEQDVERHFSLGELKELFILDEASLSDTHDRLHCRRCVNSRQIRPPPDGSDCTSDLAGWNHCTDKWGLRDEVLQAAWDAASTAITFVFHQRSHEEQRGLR

[9] = target: T6, DNA repair protein RAD52 homolog (Homo sapiens, UniProt P43351); format: functional, biochemical
T6 sequence (P43351 whole entry): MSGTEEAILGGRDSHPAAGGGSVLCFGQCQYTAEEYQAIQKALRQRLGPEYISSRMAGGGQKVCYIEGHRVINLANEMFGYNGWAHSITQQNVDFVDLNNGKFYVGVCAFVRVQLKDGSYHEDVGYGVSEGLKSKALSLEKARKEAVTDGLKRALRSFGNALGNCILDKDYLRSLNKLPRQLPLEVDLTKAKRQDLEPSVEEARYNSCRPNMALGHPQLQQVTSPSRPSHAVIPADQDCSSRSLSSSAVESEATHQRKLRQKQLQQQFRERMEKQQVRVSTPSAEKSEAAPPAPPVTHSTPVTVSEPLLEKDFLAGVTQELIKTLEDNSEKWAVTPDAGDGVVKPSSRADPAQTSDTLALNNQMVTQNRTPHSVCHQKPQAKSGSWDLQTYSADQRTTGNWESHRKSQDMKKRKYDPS

[10] = Luminescence Cell-Based Dose Confirmation HTS to Identify Activators of 5'UTR Stem-Loop Driven Alpha-Synuclein mRNA Translation in H4 Neuroglioblastoma Cells. [Related pubchem assays: 1829 (Project Summary), 1814 (Primary HTS)]; format: functional
[11] = Luminescence Cell-Based Dose Response HTS to Identify Activators of Luciferase Translation or Activity in H4 […] Cells. [Related pubchem assays: 1829 (Project Summary), 1814 (Primary HTS)]; format: functional
H4 = test: Luminescence Cell-Based Dose Response HTS to Identify Activators of 5'UTR Stem-Loop Driven Prion Protein mRNA Translation in H4 Neuroglioblastoma Cells. [Related pubchem assays: 1829 (Project Summary), 1814 (Primary HTS)]; format: functional; details: Homo sapiens
[12] = system: Streptococcus sp. 'group A'; test: growth inhibition of control SK(-) GAS strain, dose response, counter-screen for streptokinase expression inhibitor project, luminescence, kanamycin, BacTiterGlo, confirmation (AID 1900); format: functional, organism-based
Streptokinase A = target: T7, Streptokinase A (Streptococcus pyogenes serotype M1, UniProt P10520); test: S. pyogenes streptokinase expression inhibitors, potency, dose response, plasminogen activation absorbance, OD405 (AID 1914); format: functional, Streptococcus pyogenes M1 GAS;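 also: secreted streptokinase activity via plasminogen activation per viability signal from cell pellet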
T7 sequence (P10520 whole entry): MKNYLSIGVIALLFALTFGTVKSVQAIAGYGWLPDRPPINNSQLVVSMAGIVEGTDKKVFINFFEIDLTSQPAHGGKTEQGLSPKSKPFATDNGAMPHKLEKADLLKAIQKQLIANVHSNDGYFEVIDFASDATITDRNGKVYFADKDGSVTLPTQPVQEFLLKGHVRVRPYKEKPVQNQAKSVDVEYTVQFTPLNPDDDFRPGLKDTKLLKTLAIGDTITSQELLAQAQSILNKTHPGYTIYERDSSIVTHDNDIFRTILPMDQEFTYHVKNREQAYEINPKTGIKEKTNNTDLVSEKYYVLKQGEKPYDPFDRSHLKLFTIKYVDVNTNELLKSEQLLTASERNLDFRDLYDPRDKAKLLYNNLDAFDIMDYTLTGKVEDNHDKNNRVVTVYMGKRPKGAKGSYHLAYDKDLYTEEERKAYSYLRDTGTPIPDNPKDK

[13] = inhibitors of intracellular T. cruzi replication, confirmation, NIH3T3 host cells, beta-gal luminescence (AID 2044); format: functional, cell-based;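 also: intracellular parasites grown in NIH/3T3 mouse fibroblasts as host cells; luminescent beta-galactosidase reporter signal from transgenic T. cruzi replicating inside host cells; inhibitors lower the luminescence signal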
[14] = cytotoxicity toward NIH3T3 fibroblasts, dose response, counter-screen, cell-based, ATP luminescence, mouse fibroblasts (AID 2010); format: functional;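 also: cells exposed to compound for about 90 hours before reading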
Streptococcus = test: Group A Streptococcus viability loss, dose response, counter-screen for streptokinase expression inhibitor project, luminescence, BacTiterGlo (AID 1915); format: functional, organism-based;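 also: potency for reduction of bacterial viability or growth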
[15] = AlphaScreen signal interference compounds, dose response, artefact control for ARNT-TACC3 interaction inhibitor project, biochemical, luminescence, cherry-pick (AID 651705); format: functional;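 also: AlphaScreen bead proximity signal that flags compounds interfering with the detection technology; potency reflects signal decrease which marks the compound as an assay artifact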

Chain of Glyceraldehyde-3-phosphate dehydrogenase (P04406 whole entry): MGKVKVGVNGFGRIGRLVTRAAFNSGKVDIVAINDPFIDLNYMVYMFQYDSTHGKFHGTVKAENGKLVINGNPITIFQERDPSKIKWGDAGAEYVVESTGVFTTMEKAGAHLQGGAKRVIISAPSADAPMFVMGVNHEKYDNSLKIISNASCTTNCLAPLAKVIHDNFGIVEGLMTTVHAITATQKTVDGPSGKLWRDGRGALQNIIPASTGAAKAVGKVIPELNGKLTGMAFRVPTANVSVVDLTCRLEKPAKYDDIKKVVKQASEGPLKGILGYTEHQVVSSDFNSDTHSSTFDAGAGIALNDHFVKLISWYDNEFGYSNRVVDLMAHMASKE

With `C/C(CC(=O)N1CCN(C=O)CC1)=N\NC(=O)c1cc2ccccc2cc1O` the IC50 [1] was 42.5 µM (active).
With `COC(=O)c1cn(NC(=O)c2cc(OC)c(OC)c(OC)c2)c(=O)c2ccccc12` the EC50 [2] was 41.4 µM (active).
For `Oc1ncc(NCCc2ccccc2)c(O)n1`, the IC50 (cells [3]) was > 29.9 µM (inactive) and the EC50 (cells [4]) was > 29.9 µM (inactive).
For `O=C(/C=C/c1ccc([N+](=O)[O-])cc1)NCCSc1ccccc1`, the IC50 [5] was 15.9 µM (not active).
With `CCCCOC(=O)c1ccc(S(N)(=O)=O)o1` the IC50 [6] was > 100 µM (not active).
With `Cc1sc(NC(=S)NC(=O)c2cccs2)nc1-c1ccc(C(C)C)cc1` the IC50 [5] was 26 µM (not active).
For `Nc1ccc2ncccc2c1`, the IC50 [1] was > 50 µM (not active), the AC50 [7] was 6.42 µM (active) and the EC50 (Protein RecA) was 5.95 µM (active).
In the case of `CCN(CC)CCCNC(=O)c1cc2c(O)nc3ccc(C)cc3c2s1`, the AC50 [8] is reported as 62.4 µM (active) and the AC50 [9] is reported as 21.5 µM (active).
With `Cc1ccsc1-c1cc2nc(NCCCN(C)C)n(C)c(=O)c2s1` the AC50 [8] was 47 µM (active) and the AC50 [9] was 9.79 µM (active).
In the case of `c1ccc(CCN2CN=C(Nc3nc4ccccc4o3)NC2)cc1`, the EC50 [10] is reported as 14.3 µM (active), the EC50 [11] is reported as 8.35 µM (active) and the EC50 (H4) is reported as 17.3 µM (active). The IC50 (cells [3]) was > 29.9 µM (inactive) and the EC50 (cells [4]) was > 29.9 µM (inactive).
With `COc1ccc(Nc2nc3nc(O)cc(O)c3s2)cc1` the IC50 [1] was > 50 µM (not active).
For `CSCc1cc(N(C)c2ccccc2)nc(-c2ccccn2)n1`, the EC50 [12] was 6.57 µM (active), the EC50 (Streptokinase A) was > 150 µM (not active) and the EC50 [13] was 1.89 µM (active). The EC50 [14] was > 60 µM (not active), the EC50 (Streptococcus) was 25 µM (active) and the AC50 [15] was 108 µM (active).
With `COc1ccc(-c2cnc3c(NC(C)=O)cc(-c4cccc(C(=O)NCCN(C)C)c4)cn23)cc1OC` the AC50 [8] was 15.2 µM (active) and the AC50 [9] was 2.33 µM (active).
With `Cn1c(NCCN2CCCC2)nc2cc(-c3ccccc3)sc2c1=O` the AC50 [8] was 39.3 µM (active) and the AC50 [9] was 16.2 µM (active).
For `O=C(CN(C(=O)CSc1nnc(COc2ccccc2)o1)c1ccc(F)cc1)NC1CCCCC1`, the IC50 [5] was 3.19 µM (not active).
